Source: patent publication US12357636B2 (Urovant Sciences GmbH, priority 2018, dated 2025)
Read-outs that look alike come from different tables or passages of the source.

Columns and labels:
β2-AR = β2-AR (Homo sapiens, UniProt P07550); test: competition binding assay, membranes with recombinant β2-AR
[1] = multiple rising dose Phase 1 pharmacokinetics; format: in vivo, human
From the text: Although exposures were similar in middle-aged males when compared to young males, plasma concentrations were higher in elderly compared to middle-aged and young subjects.

[2] = PK in renal impairment, single dose 100 mg; format: in vivo, human; conditions: for CL/F / Fe[urine] 48 hr / AUC0-inf: single 100 mg
From the text: The relationship between clearance and renal function was modeled using linear regression.

[3] = PK in moderate hepatic impairment, single dose 100 mg; format: in vivo, human; conditions: single 100 mg, healthy matched control subjects
[4] = drug interaction: effect of ketoconazole, diltiazem or tolterodine on vibegron PK; format: in vivo, human
From the text: However, these interactions are not expected to be clinically significant.

men and women with OAB = test: Phase 2b study in OAB: efficacy (voiding diary); format: in vivo, human; conditions: OAB Wet
From the text: Part 2 was designed to continue to assess the safety and efficacy of concomitant dosing. […] Subjects in both Part 1 and Part 2 had the option of enrolling in a 1-year extension. Participants were required to keep a voiding diary, recording the occurrence of each strong urge, total incontinence, and urge incontinence episode. Efficacy data for Part 1 and Part 2 are summarized herein.
The total number of urgency incontinence episodes must have exceeded the total number of stress incontinence episodes for all subjects.
Conversely, a dose dependent effect on urge incontinence or total incontinence was not observed.

[5] = test system: patients with overactive bladder
From the text: A placebo group was included in the main study, and a group that received tolterodine monotherapy was included in the main study and in the extension.

healthy subjects = test: multiple-dose Phase 1 study: maximum MA4 heart rate; format: in vivo, human; conditions: Day 14
Protocol: More intensive assessments of heart rate and blood pressure were performed in healthy volunteers in several Phase 1 studies. […] Doses ranged from 25 to 400 mg once daily for 7 to 28 days depending on the cohort. Least squares mean and 90% confidence intervals of maximum change from baseline in moving average of heart rate over 4 hours postdose (MA4 HR) are presented in Table 18.

healthy volunteers = test: thorough QT study: RR interval and blood pressure (Table 19); format: in vivo, human
[6] = dose-Cmax and dose-AUC models, log-log regression and simulations for 75 mg; set-up: species or system human
Protocol: In order to contextualize PK parameters of a 75 mg dose, dose-Cmax and dose-AUC models were created using data from Phase 1 studies.

CYP3A4 = CYP3A4 (Homo sapiens, UniProt P08684); test: in vitro CYP metabolism; format: in vitro ADME
Chain of CYP3A4 (P08684 whole entry): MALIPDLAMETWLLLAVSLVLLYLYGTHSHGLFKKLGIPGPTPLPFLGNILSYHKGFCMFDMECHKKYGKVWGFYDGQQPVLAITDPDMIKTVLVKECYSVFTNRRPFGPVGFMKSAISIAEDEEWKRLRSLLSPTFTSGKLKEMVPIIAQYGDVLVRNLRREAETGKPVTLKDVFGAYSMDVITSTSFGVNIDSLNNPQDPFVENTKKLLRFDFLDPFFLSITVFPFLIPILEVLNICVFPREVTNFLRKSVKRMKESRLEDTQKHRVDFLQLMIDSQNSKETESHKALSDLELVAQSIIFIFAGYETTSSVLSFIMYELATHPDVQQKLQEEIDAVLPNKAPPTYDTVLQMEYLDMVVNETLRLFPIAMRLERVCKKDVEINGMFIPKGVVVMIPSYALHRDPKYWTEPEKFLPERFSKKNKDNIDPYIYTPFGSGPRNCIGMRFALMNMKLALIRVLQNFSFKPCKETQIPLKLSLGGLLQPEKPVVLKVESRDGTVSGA

[7] = test system: men and women with overactive bladder; test: Phase 3 study vibegron 75 mg: post-void residual urine volume (Tables 26-28); format: in vivo, human
From the text: The risk of acute urinary retention or morbidities related to an increase in Post-Void Residual (PVR) is a concern with antimuscarinic therapy that promotes smooth muscle relaxation by inhibiting acetylcholine-induced smooth muscle contraction. If, during contraction, the bladder cannot generate enough pressure to overcome the outlet resistance in the urethra, either because of poor detrusor contractility or profound obstruction (most commonly from BPH), acute urinary retention or incomplete emptying of the bladder may result.
The volume of urine that remains in the bladder after voiding (PVR) is an objective measurement that may serve as a proxy for impaired ability to void.
PVR were performed via ultrasound at the visits indicated in the Schedule of Activities.
In addition, the data on the Post Void Residual Urine Volume (PVR) in all males and males with a medical history of BPH is shown in Tables 26 and 27, respectively.

[8] = test system: men and women with overactive bladder; test: Phase 3 study vibegron 75 mg: safety and tolerability; format: in vivo, human; conditions: 75 mg QD, 12 weeks
Protocol: Safety analyses were conducted using the SAF and summarized by treatment group as treated. The treatment-emergent period is defined as the period of time from the first dose date of the double blinded Study Treatment through 28 days after the last dose of Study Treatment, or the date of initiation of another investigational agent or surgical intervention or rollover to the extension study, whichever occurs first. Safety was assessed through summaries of adverse events, the frequency of treatment discontinuations due to adverse events, and clinical laboratory evaluations.

[9] = human, in vivo
[10] = healthy matched control subjects
[11] = multiple doses of 240 mg or 180 mg diltiazem, vibegron 100 mg
[12] = Males with medical history of BPH
[13] = all males, vibegron 75 mg or tolterodine ER 4 mg QD

Chain of β2-AR (P07550 whole entry): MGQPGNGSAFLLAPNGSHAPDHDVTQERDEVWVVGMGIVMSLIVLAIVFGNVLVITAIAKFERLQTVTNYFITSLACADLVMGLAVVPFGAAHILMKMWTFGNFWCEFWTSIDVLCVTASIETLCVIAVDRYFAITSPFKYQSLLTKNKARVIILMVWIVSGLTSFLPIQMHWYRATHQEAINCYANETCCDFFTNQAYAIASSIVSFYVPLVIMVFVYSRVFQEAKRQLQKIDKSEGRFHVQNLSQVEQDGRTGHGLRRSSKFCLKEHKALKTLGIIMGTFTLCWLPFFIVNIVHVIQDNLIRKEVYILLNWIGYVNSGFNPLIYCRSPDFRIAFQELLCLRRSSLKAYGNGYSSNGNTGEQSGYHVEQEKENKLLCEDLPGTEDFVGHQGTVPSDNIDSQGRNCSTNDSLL

With `O=C(Nc1ccc(C[C@@H]2CC[C@H]([C@H](O)c3ccccc3)N2)cc1)[C@@H]1CCc2nccc(=O)n21` [Vibegron, (6S)—N-[4-[[(2S,5R)-5-[(R)-hydroxy(phenyl)methyl]pyrrolidin-2-yl]methyl]phenyl]-4-oxo-7,8-dihydro-6H-pyrrolo[1,2-a]pyrimidine-6-carboxamide] the “binding to β2-AR” value (β2-AR) was “does not bind”, the “steady state Cmax, elderly compared to young males” value ([1]; 100 mg QD) was about 1.3 fold and the “fe0-24hr, ss” value ([1]; 100 mg, elderly subjects) was about 17%. For the same compound, the AUC0-24 ([1]; 200 mg multiple dose, day 14, healthy young males) was 3200 ± 1120 ng·h/mL, the “fe0-24hr, ss” value ([1]; 100 and 150 mg, young males) was about 14% and the “steady state exposure (AUC0-24) higher in elderly Japanese than elderly non-Japanese” value ([1]; Day 14) was 35%. For the same compound, the “Cmax increase in elderly Japanese compared to elderly non-Japanese” value ([1]; in vivo) was 82%, the “higher Cmax in elderly and females than healthy young males” value ([1]; in vivo) was 50-70% and the “steady state AUC, middle-aged females compared to middle-aged males” value ([1]; in vivo) was about 1.5 fold. For the same compound, the “steady state exposures higher in Japanese than non-Japanese young males” value ([1]; in vivo) was about 30%, the “time to steady state” value ([1]; once daily dosing) was at most 7 days and the “exposure (AUC) higher in females compared with males” value ([1]; regardless of age) was 50%. For the same compound, the “mean increase in AUC, moderate renal impairment vs normal renal function” value ([2]; in vivo) was 1.6 fold, the “AUC0-inf higher compared to healthy matched controls” value ([2]; mild renal impairment) was 49% and the “CLR reduced compared to healthy matched controls” value (“CLR reduced” below) ([2]; mild renal impairment) was 39%. The “Cmax higher compared to healthy matched controls” value ([2]; mild renal impairment) was 96%, the “AUC0-inf higher compared to healthy matched controls” value ([2]; moderate renal impairment) was 106% and the “CLR reduced” value ([2]; moderate renal impairment) was 65%. For the same compound, the “Cmax higher compared to healthy matched controls” value ([2]; moderate renal impairment) was 68%, the “AUC0-inf higher compared to healthy matched controls” value ([2]; severe renal impairment) was 83% and the “CLR reduced” value ([2]; severe renal impairment) was 82%. For the same compound, the “Cmax higher compared to healthy matched controls” value ([2]; severe renal impairment) was 42%, the CL/F [2, 10] was 64.9 L/h and the “Fe[urine] 48 hr” value [2, 10] was 7.9%. The AUC0-inf ([2]; mild renal impairment) was 2290 ng·h/mL, the CL/F ([2]; mild renal impairment) was 43.6 L/h and the “Fe[urine] 48 hr” value ([2]; mild renal impairment) was 8.5%. For the same compound, the CL/F ([2]; moderate renal impairment) was 31.5 L/h, the “Fe[urine] 48 hr” value ([2]; moderate renal impairment) was 5.5% and the AUC0-inf ([2]; severe renal impairment) was 2820 ng·h/mL. The CL/F ([2]; severe renal impairment) was 35.5 L/h, the “Fe[urine] 48 hr” value ([2]; severe renal impairment) was 2.1% and the “CL/F increase per one mL/min/1.73 m2 increase in eGFR” value ([2]; slope of linear regression) was about 0.8%. For the same compound, the “Apparent terminal t1/2” value [3] was 92.5 (9.37%) hr, the “effect of tolterodine ER 4 mg on the pharmacokinetics of vibegron” value ([4]; in vivo) was “no effect” and the “GM AUC0-inf increase with diltiazem” value [4, 11] was 63%. The “GM Cmax increase with diltiazem” value [4, 11] was 68%, the “Urgency Incontinence Episodes daily number, Week 8 mean” value (men and women with OAB; vibegron 15 mg QD) was 1.12 and the “Total Incontinence Episodes daily number, Week 8 mean” value (men and women with OAB; vibegron 100 mg QD) was 1.12. For the same compound, the Accidental overdose ([5]; 3 mg QD) was 3 (2.1) n (%), the Accidental overdose ([5]; 15 mg QD) was 6 (4.5) n (%) and the Accidental overdose ([5]; 50 mg QD) was 4 (2.7) n (%). The Accidental overdose ([5]; 100 mg QD) was 11 (4.2) n (%), the “≥1 AE” value ([5]; 100 mg QD) was 107 (41.0) n (%) and the frequency of injuries ([5]; human, in vivo) was 0.9%. The “Maximum MA4 HR change from baseline, LS mean” value (“Maximum MA4 HR change” for short) (healthy subjects; 25 mg QD) was 1.47 bpm, the “Maximum MA4 HR, difference from placebo” value (healthy subjects; 25 mg QD) was −1.60 bpm and the “Maximum MA4 HR change” value (healthy subjects; 50 mg QD) was 1.50 bpm. The “Maximum MA4 HR, difference from placebo” value (healthy subjects; 50 mg QD) was −1.57 bpm, the “Maximum MA4 HR change” value (healthy subjects; 100 mg QD) was 3.28 bpm and the “Maximum MA4 HR change” value (healthy subjects; 150 mg QD) was 3.17 bpm. For the same compound, the “Maximum MA4 HR, difference from placebo” value (healthy subjects; 150 mg QD) was 0.10 bpm, the “Maximum MA4 HR change” value (healthy subjects; 200 mg QD) was 5.67 bpm and the “Maximum MA4 HR, difference from placebo” value (healthy subjects; 200 mg QD) was 2.60 bpm. For the same compound, the “Maximum MA4 HR change” value (healthy subjects; 300 mg QD) was 9.06 bpm, the “Maximum MA4 HR, difference from placebo” value (healthy subjects; 300 mg QD) was 5.98 bpm and the “Maximum MA4 HR change” value (healthy subjects; 400 mg QD) was 10.33 bpm. For the same compound, the “Maximum MA4 HR, difference from placebo” value (healthy subjects; 400 mg QD) was 7.26 bpm, the “Maximum Mean Placebo Corrected Change from Baseline Diastolic BP (90% CI)” value (healthy volunteers; single dose 200 mg) was 2.42 mmHg and the “Maximum Mean Placebo Corrected Change from Baseline RR interval (90% CI)” value (healthy volunteers; single dose 200 mg) was -84.36 ms. For the same compound, the “Maximum Mean Placebo Corrected Change from Baseline Systolic BP (90% CI)” value (healthy volunteers; single dose 200 mg) was 2.20 mmHg, the “Maximum Mean Placebo Corrected Change from Baseline Diastolic BP (90% CI)” value (healthy volunteers; single dose 400 mg) was 3.99 mmHg and the “Maximum Mean Placebo Corrected Change from Baseline RR interval (90% CI)” value (healthy volunteers; single dose 400 mg) was -162.45 ms. The “Maximum Mean Placebo Corrected Change from Baseline Systolic BP (90% CI)” value (healthy volunteers; single dose 400 mg) was 3.97 mmHg, the “AUC of 75 mg lower than 200 mg single dose” value [6] was about 2 fold and the “AUC of 75 mg lower than 400 mg single dose” value [6] was about 6 fold. The “Cmax of 75 mg lower than 200 mg single dose” value [6] was “approximately 3.3 fold”, the “Cmax of 75 mg lower than 400 mg single dose” value [6] was about 9.2 fold and the “increase in Cmax with increase in dose from 50 to 100 mg” value [6] was about 4 fold. The “reduction in Cmax on decreasing dose from 100 mg to 75 mg” value [6] was about 40%, the “predominant CYP responsible for in vitro metabolism” value (CYP3A4) was “CYP3A4” and the “PVR Categories at Week 12: <100 mL” value [7, 12] was 96.6%. The “PVR Categories at Week 12: ≥100 mL to <200 mL” value [7, 12] was 0%, the “PVR Categories at Week 12: ≥200 mL to <350 mL” value [7, 12] was 3.4% and the “PVR Categories at Week 12: ≥350 mL” value [7, 12] was 0%. The “PVR Mean Change from Baseline at Week 12 (SD)” value (“PVR Mean Change … (SD)” below) [7, 12] was −3.4 (42.45) mL, the “PVR Mean Change … (SD)” value [7, 13] was 2.2 (48.45) mL and the “PVR category <100 mL at Week 12” value [7, 13] was 89.7%. The “PVR category ≥100 mL to <200 mL at Week 12” value [7, 13] was 7.7%, the “PVR category ≥200 mL to <350 mL at Week 12” value [7, 13] was 2.6% and the “PVR category ≥350 mL at Week 12” value [7, 13] was 0. For the same compound, the “PVR Categories at Week 12: <100 mL” value ([7]; study population as a whole) was 89.9%, the “PVR Categories at Week 12: ≥100 mL to <200 mL” value ([7]; study population as a whole) was 3.5% and the “PVR Categories at Week 12: ≥200 mL to <350 mL” value ([7]; study population as a whole) was 0.6%. The “PVR Categories at Week 12: ≥350 mL” value ([7]; study population as a whole) was 0%, the “PVR Mean Change … (SD)” value ([7]; study population as a whole) was 0.4 (38.27) mL and the tolerability [8] was “favorable”. For the same compound, the “dose recovered in feces” value [9] was “approximately 59%” and the “dose recovered in urine” value [9] was about 20%.
